Publication PMC3227451, “Structure-based development of novel sirtuin inhibitors” (Aging (Albany NY), 2011)

Experiments:
[1] = target: T1, Sirt1 (Homo sapiens, UniProt Q96EB6); experiment: in vitro activity of Sirt1; assay type: biochemical; conditions: concentration of 100 μM
T1 sequence (Q96EB6 1-747): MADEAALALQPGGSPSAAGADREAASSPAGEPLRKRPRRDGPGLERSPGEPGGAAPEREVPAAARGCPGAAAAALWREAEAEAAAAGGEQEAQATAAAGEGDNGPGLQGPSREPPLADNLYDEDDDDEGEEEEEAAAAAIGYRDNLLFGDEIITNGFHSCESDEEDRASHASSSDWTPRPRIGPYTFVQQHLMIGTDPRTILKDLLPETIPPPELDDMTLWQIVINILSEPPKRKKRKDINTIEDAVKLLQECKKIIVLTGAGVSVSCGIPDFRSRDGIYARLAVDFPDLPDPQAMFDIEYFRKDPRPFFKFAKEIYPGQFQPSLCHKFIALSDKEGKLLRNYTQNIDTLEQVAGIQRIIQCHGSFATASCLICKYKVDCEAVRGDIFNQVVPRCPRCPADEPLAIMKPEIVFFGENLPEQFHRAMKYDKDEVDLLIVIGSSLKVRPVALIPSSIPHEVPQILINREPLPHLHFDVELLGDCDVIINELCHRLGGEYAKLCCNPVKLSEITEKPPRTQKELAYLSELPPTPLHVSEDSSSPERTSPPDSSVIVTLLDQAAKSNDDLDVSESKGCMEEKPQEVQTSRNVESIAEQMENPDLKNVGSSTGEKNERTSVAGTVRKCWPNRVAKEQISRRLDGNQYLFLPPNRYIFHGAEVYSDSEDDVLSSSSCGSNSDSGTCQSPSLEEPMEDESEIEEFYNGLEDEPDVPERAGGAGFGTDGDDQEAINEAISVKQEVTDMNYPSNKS

[2] = target: T2, Sirt6 (Homo sapiens, UniProt Q8N6T7); experiment: Fluor-de-Lys peptide deacetylation assay, Sirt6; assay type: biochemical; conditions: 100 μM compound; 0.1 mM FdL-1 peptide, 0.5 mM NAD+
T2 construct: Sirt6 residues 13-308; His-tag with linker comprising a TEV protease cleavage site (N, cleaved yes); made in house; host or cells: E. coli Rosetta2
T2 sequence (Q8N6T7 13-308): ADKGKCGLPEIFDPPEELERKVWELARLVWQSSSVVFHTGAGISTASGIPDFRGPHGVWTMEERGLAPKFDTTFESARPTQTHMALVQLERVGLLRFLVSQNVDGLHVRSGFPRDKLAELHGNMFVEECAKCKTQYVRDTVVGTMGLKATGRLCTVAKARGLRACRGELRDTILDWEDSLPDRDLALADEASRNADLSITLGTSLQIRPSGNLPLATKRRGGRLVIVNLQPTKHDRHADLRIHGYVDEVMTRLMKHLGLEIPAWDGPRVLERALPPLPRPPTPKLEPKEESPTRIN
In short: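 Fluor-de-Lys kit run with FdL-1 peptide RHK(acetyl-K), 0.1 mM, plus 0.5 mM NAD+. Compounds at 100 μM final, 30 min at 37 °C, then trypsin developer for 45 min at room temperature.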

[3] = target: T3, Sirt5 (Homo sapiens, UniProt Q9NXA8); experiment: Fluor-de-Lys peptide deacetylation assay, Sirt5; assay type: biochemical; conditions: 100 μM compound; 0.1 mM FdL-1 peptide, 0.5 mM NAD+
T3 construct: Sirt5 residues 34-302; His-tag with linker comprising a TEV protease cleavage site (N); made in house
T3 sequence (Q9NXA8 34-302): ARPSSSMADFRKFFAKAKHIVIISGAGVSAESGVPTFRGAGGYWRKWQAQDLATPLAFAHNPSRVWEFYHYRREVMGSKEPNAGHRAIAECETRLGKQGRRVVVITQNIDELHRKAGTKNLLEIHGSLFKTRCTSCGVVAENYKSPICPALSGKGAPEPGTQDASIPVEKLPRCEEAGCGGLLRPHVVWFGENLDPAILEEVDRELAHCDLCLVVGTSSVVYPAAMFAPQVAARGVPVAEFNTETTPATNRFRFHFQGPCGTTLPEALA
In short: (§1)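 E. coli-expressed human Sirtuins with 0.5 mM NAD+ and 0.1 mM Fluor-de-Lys peptide: FdL-2 (QPK(acetyl-K)) for Sirt3, FdL-1 (RHK(acetyl-K)) for Sirt5. Compounds at 100 μM final; 30 min at 37 °C, then trypsin developer for 45 min at room temperature.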

[4] = target: T4, Sirt2 (Homo sapiens, UniProt Q8IXJ6); experiment: Fluor-de-Lys peptide deacetylation assay, Sirt2; assay type: biochemical
T4 sequence (Q8IXJ6 34-356): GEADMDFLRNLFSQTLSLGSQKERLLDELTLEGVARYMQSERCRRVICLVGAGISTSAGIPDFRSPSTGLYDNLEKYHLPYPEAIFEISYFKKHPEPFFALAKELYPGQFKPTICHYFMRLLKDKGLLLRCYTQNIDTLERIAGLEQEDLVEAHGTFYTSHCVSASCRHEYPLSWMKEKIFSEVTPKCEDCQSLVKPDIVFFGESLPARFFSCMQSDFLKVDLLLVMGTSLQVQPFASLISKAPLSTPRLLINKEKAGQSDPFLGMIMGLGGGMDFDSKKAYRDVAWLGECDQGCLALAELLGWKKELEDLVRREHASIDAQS
In short: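 Full-length human Sirt2 (E. coli-expressed, purified, His-tag removed) incubated 30 min at 37 °C with 0.1 mM FdL-2 peptide (QPK(acetyl-K)), 0.5 mM NAD+ and compound at 100 μM final in kit buffer. Values corrected with compound-only (no Sirtuin) controls; screen in duplicate, dose-response in triplicate.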

[5] = target: T5, Sirt3 (Homo sapiens, UniProt Q9NTG7); experiment: Fluor-de-Lys peptide deacetylation assay, Sirt3; assay type: biochemical; conditions: 100 μM compound; 0.1 mM FdL-2 peptide, 0.5 mM NAD+
T5 construct: Sirt3 residues 114-399; His-tag with linker comprising a TEV protease cleavage site (N); made in house; host or cells: E. coli
T5 sequence (Q9NTG7 114-399): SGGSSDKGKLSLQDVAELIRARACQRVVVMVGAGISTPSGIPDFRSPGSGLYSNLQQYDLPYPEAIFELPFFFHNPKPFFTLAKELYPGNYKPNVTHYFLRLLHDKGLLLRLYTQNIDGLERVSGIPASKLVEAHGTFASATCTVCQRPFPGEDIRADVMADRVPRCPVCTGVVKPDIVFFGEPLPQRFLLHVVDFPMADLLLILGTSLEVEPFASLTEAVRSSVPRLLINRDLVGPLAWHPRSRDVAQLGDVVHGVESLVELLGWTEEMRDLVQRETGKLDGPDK
In short: as §1

[6] = tested on: HEK cells; experiment: Cytotoxicity testing on HEK cells
[7] = tested on: yeast Sir2; design: method as in PMID 14534292; conditions: cited from earlier work
[8] = tested on: Sirt5; conditions: cited from earlier work
[9] = tested on: Sirt1; conditions: cited from earlier work
[10] = tested on: Sirt2; conditions: cited from earlier work

Compound: C[C@]12CC[C@@H]3c4ccc(O)cc4CC[C@H]3[C@@H]1CCC2OC(=O)CCc1ccccc1 (some centres unmarked) [CSC8, 3-hydroxyestra-1,3,5(10)-trien-17-yl 3-phenylpropanoate]
- effect on the in vitro activity of Sirt1 [1]: only a weak inhibitory effect
- Effect on the activity of Sirt6 [2]: --- (no such effect)
- Effect on the activity of Sirt5 [3]: --- (no such effect)
- Effect on the activity of Sirt2 ([4]; 100 μM compound, 0.1 mM FdL-2 peptide, 0.5 mM NAD+): inhibition (significant inhibitory effects (>25% loss of activity))
- inhibition at 100 µM ([4]; 100 μM compound, read-out: Sirt2 inhibition in the screen): ~80%
- IC50 ([4]; dose-response, substrate peptide concentration 100 μM, read-out: IC50 against Sirt2): 4.8 ± 0.5 µM
- Effect on the activity of Sirt3 [5]: --- (no such effect)
- cytotoxicity [6]: very high cytotoxicity

Compound: O=C1CCc2c(ccc3ccccc23)O1 [splitomicin]
- inhibition of yeast Sir2 (potency range) [7]: micromolar inhibitors

Compound: NC(=O)C1CCCc2c1[nH]c1ccc(Cl)cc21 (centres unmarked) [EX-527]
- effect against Sirt5 [8]: no effect
- potency against Sirt2 relative to Sirt1 [10]: about two orders of magnitude lower potency

Compound: CC(NC(=O)c1ccccc1/N=C/c1c(O)ccc2ccccc12)c1ccccc1 (centres unmarked) [sirtinol]
- weaker potency against Sirt1 than against Sirt2 [9]: ~ 3 fold
